Reference: patent US20100267561A1, “HERBICIDAL PYRIDAZINONE DERIVATIVES” (priority 2007, published 2010)

Legend:
Test in all cases: Test E pre-/postemergence plant response
Format in all cases: in vivo
[1] = tested on: goosegrass (Eleusine indica); details: scale 0 to 100
From the text: (§1) Seeds of plant species selected from bermudagrass (Cynodon dactylon), Surinam grass (Brachiaria decumbens), large crabgrass (Digitaria sanguinalis), green foxtail (Setaria viridis), goosegrass (Eleusine indica), johnsongrass (Sorghum halepense), kochia (Kochia scoparia), pitted morningglory (Ipomoea lacunosa), purple nutsedge (Cyperus rotundus), common ragweed (Ambrosia elation), black mustard (Brassica nigra), guineagrass (Panicum maximum), dallisgrass (Paspalum dilatatum), barnyardgrass (Echinochloa crus-galli), southern (S.) sandbur (Cenchrus echinatus), common sowthistle (Sonchus oleraceous), prickly sida (Sida spinosa), Italian ryegrass (Lolium multiflorum), common purslane (Portulaca oleracea), broadleaf signalgrass (Brachiaria platyphylla), common groundsel (Senecio vulgaris), common chickweed (Stellaria media), Virginia (V.) dayflower (Commelina virginica), tropical (T.) spiderwort (Commelina benghalensis), annual bluegrass (Poa annua), naked crabgrass (Digitaria nuda), itchgrass (Rottboellia cochinchinensis), quackgrass (Elytrigia repens), Canada horseweed (Conyza canadensis), field bindweed (Convolvulus arvensis), spanishneedles (Bidens bipinnata), common mallow (Malva sylvestris) and Russian thistle (Salsola kali) were planted and treated preemergence with test chemicals formulated in a non-phytotoxic solvent mixture which included a surfactant. At the same time, plants selected from these weed species were treated with postemergence applications of some of the test chemicals formulated in the same manner. Plants ranged in height from 2 to 18 cm (1- to 4-leaf stage) for postemergence treatments.
(§2) Treated plants and controls were maintained in a greenhouse for 14 to 21 days, after which time all species were compared to controls and visually evaluated. Plant response ratings, summarized in Table E, are based on a scale of 0 to 100 where 0 is no effect and 100 is complete control. A dash (-) response means no test result.

[2] = tested on: itchgrass (Rottboellia cochinchinensis); details: scale 0 to 100
From the text: as §1, §2

[3] = tested on: naked crabgrass (Digitaria nuda); details: scale 0 to 100
From the text: as §1, §2

[4] = tested on: common chickweed (Stellaria media); details: Postemergence, scale 0 to 100
From the text: as §1, §2

[5] = tested on: barnyardgrass (Echinochloa crus-galli); details: scale 0 to 100
From the text: as §1, §2

[6] = tested on: annual bluegrass (Poa annua); details: scale 0 to 100
From the text: as §1, §2

[7] = tested on: pitted morningglory (Ipomoea lacunosa); details: scale 0 to 100
From the text: as §1, §2

[8] = tested on: guineagrass (Panicum maximum); details: scale 0 to 100
From the text: as §1, §2

[9] = tested on: Italian ryegrass (Lolium multiflorum); details: scale 0 to 100
From the text: as §1, §2

[10] = tested on: black mustard (Brassica nigra); details: scale 0 to 100
From the text: as §1, §2

[11] = tested on: bermudagrass (Cynodon dactylon); details: scale 0 to 100
From the text: as §1, §2

Cn1ncc(O)c(-c2nn(-c3ccc(Cl)cc3)cc2Br)c1=O [Compound 31]
Plant response rating, Goosegrass ([1]; 8 g ai/ha, Preemergence): 20
Plant response rating, Goosegrass ([1]; 16 g ai/ha, Preemergence): 35
Plant response rating, Goosegrass ([1]; 31 g ai/ha, Preemergence): 100
Plant response rating, Goosegrass ([1]; 62 g ai/ha, Preemergence): 100
Plant response rating, Goosegrass ([1]; Postemergence, 8 g ai/ha): 35
Plant response rating, Goosegrass ([1]; Postemergence, 16 g ai/ha): 50
Plant response rating, Goosegrass ([1]; Postemergence, 31 g ai/ha): 70
Plant response rating, Goosegrass ([1]; Postemergence, 62 g ai/ha): 75
Plant response rating, Itchgrass ([2]; 16 g ai/ha, Preemergence): 0
Plant response rating, Itchgrass ([2]; 31 g ai/ha, Preemergence): 75
Plant response rating, Itchgrass ([2]; 62 g ai/ha, Preemergence): 75
Plant response rating, Itchgrass ([2]; Postemergence, 8 g ai/ha): 50
Plant response rating, Itchgrass ([2]; Postemergence, 16 g ai/ha): 60
Plant response rating, Itchgrass ([2]; Postemergence, 31 g ai/ha): 65
Plant response rating, Itchgrass ([2]; Postemergence, 62 g ai/ha): 70
Plant response rating, Crabgrass, Naked ([3]; 8 g ai/ha, Preemergence): 0
Plant response rating, Crabgrass, Naked ([3]; 16 g ai/ha, Preemergence): 50
Plant response rating, Crabgrass, Naked ([3]; 31 g ai/ha, Preemergence): 98
Plant response rating, Crabgrass, Naked ([3]; 62 g ai/ha, Preemergence): 100
Plant response rating, Crabgrass, Naked ([3]; Postemergence, 8 g ai/ha): 30
Plant response rating, Crabgrass, Naked ([3]; Postemergence, 16 g ai/ha): 65
Plant response rating, Crabgrass, Naked ([3]; Postemergence, 31 g ai/ha): 75
Plant response rating, Crabgrass, Naked ([3]; Postemergence, 62 g ai/ha): 90
Plant response rating, Chickweed ([4]; 8 g ai/ha): 0
Plant response rating, Chickweed ([4]; 16 g ai/ha): 0
Plant response rating, Chickweed ([4]; 31 g ai/ha): 0
Plant response rating, Barnyardgrass ([5]; 8 g ai/ha, Preemergence): 0
Plant response rating, Barnyardgrass ([5]; 16 g ai/ha, Preemergence): 15
Plant response rating, Barnyardgrass ([5]; 31 g ai/ha, Preemergence): 75
Plant response rating, Barnyardgrass ([5]; 62 g ai/ha, Preemergence): 90
Plant response rating, Barnyardgrass ([5]; Postemergence, 8 g ai/ha): 35
Plant response rating, Barnyardgrass ([5]; Postemergence, 16 g ai/ha): 70
Plant response rating, Barnyardgrass ([5]; Postemergence, 31 g ai/ha): 75
Plant response rating, Barnyardgrass ([5]; Postemergence, 62 g ai/ha): 100
Plant response rating, Bluegrass ([6]; 8 g ai/ha, Preemergence): 0
Plant response rating, Bluegrass ([6]; 16 g ai/ha, Preemergence): 0
Plant response rating, Bluegrass ([6]; 31 g ai/ha, Preemergence): 0
Plant response rating, Bluegrass ([6]; 62 g ai/ha, Preemergence): 0
Plant response rating, Bluegrass ([6]; Postemergence, 8 g ai/ha): 0
Plant response rating, Bluegrass ([6]; Postemergence, 16 g ai/ha): 0
Plant response rating, Bluegrass ([6]; Postemergence, 31 g ai/ha): 0
Plant response rating, Bluegrass ([6]; Postemergence, 62 g ai/ha): 10
Plant response rating, Morningglory ([7]; 16 g ai/ha, Preemergence): 0
Plant response rating, Morningglory ([7]; 31 g ai/ha, Preemergence): 0
Plant response rating, Morningglory ([7]; 62 g ai/ha, Preemergence): 0
Plant response rating, Morningglory ([7]; Postemergence, 8 g ai/ha): 0
Plant response rating, Morningglory ([7]; Postemergence, 16 g ai/ha): 0
Plant response rating, Morningglory ([7]; Postemergence, 31 g ai/ha): 0
Plant response rating, Morningglory ([7]; Postemergence, 62 g ai/ha): 0
Plant response rating, Guineagrass ([8]; 16 g ai/ha, Preemergence): 90
Plant response rating, Guineagrass ([8]; 31 g ai/ha, Preemergence): 100
Plant response rating, Guineagrass ([8]; 62 g ai/ha, Preemergence): 100
Plant response rating, Guineagrass ([8]; Postemergence, 8 g ai/ha): 75
Plant response rating, Guineagrass ([8]; Postemergence, 16 g ai/ha): 80
Plant response rating, Guineagrass ([8]; Postemergence, 31 g ai/ha): 85
Plant response rating, Guineagrass ([8]; Postemergence, 62 g ai/ha): 90
Plant response rating, Ryegrass, Italian ([9]; 16 g ai/ha, Preemergence): 65
Plant response rating, Ryegrass, Italian ([9]; 31 g ai/ha, Preemergence): 90
Plant response rating, Ryegrass, Italian ([9]; 62 g ai/ha, Preemergence): 100
Plant response rating, Ryegrass, Italian ([9]; Postemergence, 8 g ai/ha): 30
Plant response rating, Ryegrass, Italian ([9]; Postemergence, 16 g ai/ha): 35
Plant response rating, Ryegrass, Italian ([9]; Postemergence, 31 g ai/ha): 50
Plant response rating, Ryegrass, Italian ([9]; Postemergence, 62 g ai/ha): 90
Plant response rating, Mustard, Black ([10]; 8 g ai/ha, Preemergence): 0
Plant response rating, Mustard, Black ([10]; 16 g ai/ha, Preemergence): 0
Plant response rating, Mustard, Black ([10]; 31 g ai/ha, Preemergence): 0
Plant response rating, Mustard, Black ([10]; 62 g ai/ha, Preemergence): 0
Plant response rating, Mustard, Black ([10]; Postemergence, 8 g ai/ha): 0
Plant response rating, Mustard, Black ([10]; Postemergence, 16 g ai/ha): 0
Plant response rating, Mustard, Black ([10]; Postemergence, 31 g ai/ha): 0
Plant response rating, Mustard, Black ([10]; Postemergence, 62 g ai/ha): 0
Plant response rating, Bermudagrass ([11]; 8 g ai/ha, Preemergence): 0
Plant response rating, Bermudagrass ([11]; 16 g ai/ha, Preemergence): 75
Plant response rating, Bermudagrass ([11]; 31 g ai/ha, Preemergence): 95
Plant response rating, Bermudagrass ([11]; 62 g ai/ha, Preemergence): 100
Plant response rating, Bermudagrass ([11]; Postemergence, 8 g ai/ha): 65
Plant response rating, Bermudagrass ([11]; Postemergence, 16 g ai/ha): 75
Plant response rating, Bermudagrass ([11]; Postemergence, 31 g ai/ha): 90
Plant response rating, Bermudagrass ([11]; Postemergence, 62 g ai/ha): 95
